Measurements published in patent US20260001928A1 (CORTERIA PHARMACEUTICALS, priority 2022, published 2026).
*1 amine or outer side, *2 acyl side, *3 side chain or, on linkers, in order; H or OH if unused. Where a SMILES comes first, the peptide text is derived from it. Side-chain parts run from the residue outwards. [ ]: non-standard residue; d: D form. The star is where a group is joined. C20 diacid = O=C(O)CCCCCCCCCCCCCCCCCCC(=O)*; C18 diacid = O=C(O)CCCCCCCCCCCCCCCCC(=O)*; γGlu = O=C(O)[C@H](CCC(=O)[*:2])N[*:1]; NMeI = CC[C@H](C)[C@H](NC)C(=O)O; Abu = CC[C@H](N)C(=O)O; Pentanoyl = CCCCC(=O)*; AEEA = NCCOCCOCC(=O)O; Aib = CC(C)(N)C(=O)O

Experiments:
[1] = molecular target: T1, human CRF2a receptor (Homo sapiens, UniProt Q13324); experiment: Activity at human CRF2a receptor, cAMP functional assay in TeloHEAC cells; format: cell-based; conditions: TeloHEAC cells stably expressing human CRF2a receptor, relative to urocortin 2 (100 nM = 100%)
T1 construct: expressed in transfected cells; host or cells: TeloHEAC cells
T1 sequence (Q13324 1-411): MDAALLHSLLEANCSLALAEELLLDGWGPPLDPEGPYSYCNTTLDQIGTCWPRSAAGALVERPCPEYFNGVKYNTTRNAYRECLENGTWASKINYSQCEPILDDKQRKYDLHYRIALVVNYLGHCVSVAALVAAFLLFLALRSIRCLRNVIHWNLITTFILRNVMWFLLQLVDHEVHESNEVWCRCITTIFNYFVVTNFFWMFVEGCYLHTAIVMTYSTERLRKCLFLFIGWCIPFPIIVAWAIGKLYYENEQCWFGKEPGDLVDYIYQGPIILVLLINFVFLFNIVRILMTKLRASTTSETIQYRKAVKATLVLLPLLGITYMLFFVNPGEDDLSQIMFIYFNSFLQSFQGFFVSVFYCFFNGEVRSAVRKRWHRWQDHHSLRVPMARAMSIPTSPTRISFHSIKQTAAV
Summary of the method: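 cAMP accumulation was measured by HTRF 665/620 nm ratio after 30 min at 37° C compound exposure (16 twofold dilutions) of CRF2a-expressing TeloHEAC cells, 10000/well, in HEPES-buffered HBSS plus IBMX. Activity was normalised to urocortin 2 at 100 nM (100%), and EC50 was the concentration giving half-maximal activation.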

[2] = molecular target: T2, CFR1R receptor (Homo sapiens, UniProt P34998); experiment: Activity at anti-target CFR1R receptor, cAMP assay in CRF1R-overexpression CHO-K1 cells; format: cell-based; conditions: 100% = Sauvagine at 100 nM; for EC50: cAMP
T2 construct: host or cells: CHO-K1 (clone 2)
T2 sequence (P34998 24-415): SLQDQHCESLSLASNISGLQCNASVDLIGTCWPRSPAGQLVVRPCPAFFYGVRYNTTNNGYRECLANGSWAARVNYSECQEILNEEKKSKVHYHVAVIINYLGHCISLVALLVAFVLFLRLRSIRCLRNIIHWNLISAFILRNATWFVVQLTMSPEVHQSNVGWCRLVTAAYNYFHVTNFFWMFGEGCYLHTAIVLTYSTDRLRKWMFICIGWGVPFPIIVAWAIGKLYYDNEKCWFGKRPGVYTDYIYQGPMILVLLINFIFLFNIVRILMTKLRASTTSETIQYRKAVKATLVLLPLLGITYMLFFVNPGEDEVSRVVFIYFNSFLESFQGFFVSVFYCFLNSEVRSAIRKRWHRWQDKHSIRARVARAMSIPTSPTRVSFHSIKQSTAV
Summary of the method: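 The method mirrors that used with TeloHAEC cells. Here, thawed clone 2 cells seeded at 4000 cells/well are tested, and 100 nM Sauvagine sets the top of the activation scale.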

[3] = Chemical stability in buffer (pH 7.4 / pH 4.5), % purity loss; format: physicochemical; conditions: 40° C. vs 5° C., 14 or 28 days; for Buffer stability pH 4.5 % purity loss: 100 mM acetate buffer pH 4.5; for Buffer stability pH 7.4 % purity loss: 100 mM phosphate buffer pH 7.4
Protocol: Solubility and chemical stability were studied in 100 mM phosphate buffer (pH 7.4) and 100 mM acetate buffer (pH 4.5). Test compound powders were dissolved in both buffers at a target concentration of 10 mg/mL and incubated for 1 hour at room temperature. After centrifugation at 2500 rcf for 15 minutes, 10 μL of supernatant was diluted with 190 μL of the incubation buffer and analyzed by LC-UV (Acquity UPLC-DAD, Waters). Solubility was calculated by comparing the peak area of the test compound in the buffer sample with the peak area of the same compound dissolved at 0.5 mg/mL in water:acetonitrile 1:1, 0.1% formic acid.
From the centrifuged supernatant, two additional 80 μL aliquots were collected and diluted with 160 μL of incubation buffer. One aliquot was stored at 5° C., while the other was stored at 40° C. After 14 or 28 days, the samples were analyzed by LC-UV. Chemical stability was calculated as % loss using the following equations: […]

| EC50 [1] [nM] | Emax (% I) [2] [% I] | EC50 [2] [nM] | Buffer stability pH 4.5 % purity loss [3] | Buffer stability pH 7.4 % purity loss [3] | SMILES |
| --- | --- | --- | --- | --- | --- |
| 5.08 | 6 | > 250 | 0% | 19% | CC[C@H](C)[C@H](NC(=O)[C@H](CCC(N)=O)NC(=O)[C@H](CCCCN)NC(=O)[C@H](CC(N)=O)NC(=O)[C@@H](NC(=O)[C@H](CCC(=O)O)NC(=O)[C@H](C)NC(=O)[C@H](CCC(N)=O)NC(=O)[C@H](CCC(=O)O)NC(=O)[C@H](CCCNC(=N)N)NC(=O)[C@H](CCC(N)=O)NC(=O)[C@H](CCCCN)NC(=O)[C@H](CCCCN)NC(=O)[C@H](CCC(N)=O)NC(=O)[C@H](CCCCN)NC(=O)[C@H](CCC(=O)O)NC(=O)[C@H](CCC(N)=O)NC(=O)[C@H](CCC(=O)O)NC(=O)[C@H](CC(C)C)NC(=O)[C@H](CC(C)C)NC(=O)[C@@H](NC(=O)[C@H](CCCCN)NC(=O)[C@H](CCCCNC(=O)COCCOCCNC(=O)COCCOCCNC(=O)CC[C@H](NC(=O)CCCCCCCCCCCCCCCCC(=O)O)C(=O)O)NC(=O)[C@H](CC(C)C)NC(=O)[C@H](CCCCN)NC(=O)[C@@H](NC(=O)[C@@H]1CCCN1C(=O)[C@H](NC(=O)[C@H](CC(=O)O)NC(=O)[C@H](CC(C)C)NC(=O)[C@H](CO)NC(=O)[C@H](CC(C)C)NC(=O)[C@@H](N)C(C)C)C(C)C)[C@@H](C)CC)[C@@H](C)CC)[C@@H](C)O)C(=O)N[C@@H](CC(C)C)C(=O)N[C@@H](C)C(=O)N[C@@H](CCC(N)=O)C(=O)N[C@H](C(N)=O)C(C)C [compound 93] (H-VLSLD[dV]PIKLK([AEEA-AEEA-γGlu-C18 diacid])KILLEQEKQKKQREQAETNKQILAQV-NH2) |
| 0.49 | 4 | > 250 | nd/0 ^ % |  | CCCCC(=O)N[C@H](C(=O)N[C@@H](CC(C)C)C(=O)N[C@@H](CO)C(=O)N[C@@H](CC(C)C)C(=O)N[C@@H](CC(=O)O)C(=O)N[C@H](C(=O)N1CCC[C@H]1C(=O)N[C@H](C(=O)N[C@@H](CCCCN)C(=O)N[C@@H](CC(C)C)C(=O)N[C@@H](CCCCNC(=O)COCCOCCNC(=O)COCCOCCNC(=O)CC[C@H](NC(=O)CCCCCCCCCCCCCCCCC(=O)O)C(=O)O)C(=O)N[C@@H](CCCCN)C(=O)N[C@H](C(=O)N[C@@H](CC(C)C)C(=O)N[C@@H](CC(C)C)C(=O)N[C@@H](CCC(=O)O)C(=O)N[C@@H](CCC(N)=O)C(=O)N[C@@H](CCC(=O)O)C(=O)N[C@@H](CCCCN)C(=O)N[C@@H](CCC(N)=O)C(=O)N[C@@H](CCCCN)C(=O)N[C@@H](CCCCN)C(=O)N[C@@H](CCC(N)=O)C(=O)N[C@@H](CCCNC(=N)N)C(=O)N[C@@H](CCC(=O)O)C(=O)N[C@@H](CCC(N)=O)C(=O)N[C@@H](C)C(=O)N[C@@H](CCC(=O)O)C(=O)N[C@H](C(=O)N[C@@H](CC(N)=O)C(=O)N[C@@H](CCCCN)C(=O)N[C@@H](CCC(N)=O)C(=O)N[C@H](C(=O)N[C@@H](CC(C)C)C(=O)N[C@@H](C)C(=O)N[C@@H](CCC(N)=O)C(=O)N[C@H](C(N)=O)C(C)C)[C@@H](C)CC)[C@@H](C)O)[C@@H](C)CC)[C@@H](C)CC)C(C)C)C(C)C [compound 96] (Pentanoyl-VLSLDVPIKLK([AEEA-AEEA-γGlu-C18 diacid])KILLEQEKQKKQREQAETNKQILAQV-NH2) |
| 0.47 | 5 | > 250 | 0/0 ^ % | 0/0 ^ % | CC[C@H](NC(=O)[C@H](CC(N)=O)NC(=O)[C@@H](NC(=O)[C@H](CCC(=O)O)NC(=O)[C@H](C)NC(=O)[C@H](CCC(N)=O)NC(=O)[C@H](CCC(=O)O)NC(=O)[C@H](CCCNC(=N)N)NC(=O)[C@H](CCC(N)=O)NC(=O)[C@H](CCCCN)NC(=O)[C@H](CCCCN)NC(=O)[C@H](CCC(N)=O)NC(=O)[C@H](CCCCN)NC(=O)[C@H](CCC(=O)O)NC(=O)[C@H](CCC(N)=O)NC(=O)[C@H](CCC(=O)O)NC(=O)[C@H](CC(C)C)NC(=O)[C@H](CC(C)C)NC(=O)[C@@H](NC(=O)[C@H](CCCCN)NC(=O)[C@H](CCCCNC(=O)COCCOCCNC(=O)COCCOCCNC(=O)CC[C@H](NC(=O)CCCCCCCCCCCCCCCCC(=O)O)C(=O)O)NC(=O)[C@H](CC(C)C)NC(=O)[C@H](CCCCN)NC(=O)[C@@H](NC(=O)[C@@H]1CCCN1C(=O)[C@H](NC(=O)[C@H](CC(=O)O)NC(=O)[C@H](CC(C)C)NC(=O)[C@H](CO)NC(=O)[C@H](CC(C)C)NC(=O)[C@@H](NC(=O)[C@@H](NC(C)=O)[C@@H](C)CC)C(C)C)C(C)C)[C@@H](C)CC)[C@@H](C)CC)[C@@H](C)O)C(=O)N[C@@H](CCC(N)=O)C(=O)N[C@H](C(=O)N[C@@H](CC(C)C)C(=O)N[C@@H](C)C(=O)N[C@@H](CCC(N)=O)C(=O)N[C@H](C(N)=O)C(C)C)[C@@H](C)CC [compound 104] (Ac-IVLSLD[dV]PIKLK([AEEA-AEEA-γGlu-C18 diacid])KILLEQEKQKKQREQAETN[Abu]QILAQV-NH2) |
| 0.11 | 0 | > 250 | 2.6% | 0.0% | CC[C@H](C)[C@H](NC)C(=O)N[C@H](C(=O)N[C@@H](CC(C)C)C(=O)N[C@@H](CO)C(=O)N[C@@H](CC(C)C)C(=O)N[C@@H](CC(=O)O)C(=O)N[C@@H](C(=O)N1CCC[C@H]1C(=O)N[C@H](C(=O)N[C@@H](CCCCN)C(=O)N[C@@H](CC(C)C)C(=O)N[C@@H](CCCCNC(=O)COCCOCCNC(=O)COCCOCCNC(=O)CC[C@H](NC(=O)CCCCCCCCCCCCCCCCCCC(=O)O)C(=O)O)C(=O)N[C@@H](CCCCN)C(=O)N[C@H](C(=O)N[C@@H](CC(C)C)C(=O)N[C@@H](CC(C)C)C(=O)N[C@@H](CCC(=O)O)C(=O)N[C@@H](CCC(N)=O)C(=O)N[C@@H](CCC(=O)O)C(=O)N[C@@H](CCCCN)C(=O)N[C@@H](CCC(N)=O)C(=O)N[C@@H](CCCCN)C(=O)NC(C)(C)C(=O)N[C@@H](CCC(N)=O)C(=O)N[C@@H](CCCNC(=N)N)C(=O)N[C@@H](CCC(=O)O)C(=O)N[C@@H](CCC(N)=O)C(=O)N[C@@H](C)C(=O)N[C@@H](CCC(=O)O)C(=O)N[C@H](C(=O)N[C@@H](CC(N)=O)C(=O)NC(C)(C)C(=O)N[C@@H](CCC(N)=O)C(=O)N[C@H](C(=O)N[C@@H](CC(C)C)C(=O)N[C@@H](C)C(=O)N[C@@H](CCC(N)=O)C(=O)N[C@H](C(N)=O)C(C)C)[C@@H](C)CC)[C@@H](C)O)[C@@H](C)CC)[C@@H](C)CC)C(C)C)C(C)C [compound 239] (H-[NMeI]VLSLD[dV]PIKLK([AEEA-AEEA-γGlu-C20 diacid])KILLEQEKQK[Aib]QREQAETN[Aib]QILAQV-NH2) |
